Molecules are shown by their SMILES.

The term IC50 denotes the concentration that inhibits the measured activity by half. Low values mean greater potency in that assay, high ones weaker potency in that assay.

Holding throughout (assay): PDE4 Activity Assay
Common to all, as to details: pH 7.5; 22 °C

The target of test [1] is cAMP-specific 3',5'-cyclic phosphodiesterase 4B (Homo sapiens, UniProt Q07343). As for the experimental part:
(§1) PDE4 catalytic activity was monitored by measuring the hydrolysis of [3H]-cAMP to [3H]-AMP using PDE-SPA kit (Amersham International). [3H]-AMP was captured by the SPA beads, and quantified on a Wallac-Microbeta scintillation counter. A linear reaction progress curve (30 min) and a linear enzyme concentration response (0 to 500 pM) were observed. The IC50 value was calculated from an 11-point dose-response curve performed in duplicate using a 4-parameter least-squares nonlinear regression fit.

The target of test [2] is cAMP-specific 3',5'-cyclic phosphodiesterase 4A (Homo sapiens, UniProt P27815). As for the experimental part: as §1
The target of test [3] is cAMP-specific 3',5'-cyclic phosphodiesterase 4C (Homo sapiens, UniProt Q08493). Here is the method: as §1
Test [4] has as its target cAMP-specific 3',5'-cyclic phosphodiesterase 4D (Homo sapiens, UniProt Q08499). Here is the method: as §1

Sequence of cAMP-specific 3',5'-cyclic phosphodiesterase 4A (P27815 whole entry): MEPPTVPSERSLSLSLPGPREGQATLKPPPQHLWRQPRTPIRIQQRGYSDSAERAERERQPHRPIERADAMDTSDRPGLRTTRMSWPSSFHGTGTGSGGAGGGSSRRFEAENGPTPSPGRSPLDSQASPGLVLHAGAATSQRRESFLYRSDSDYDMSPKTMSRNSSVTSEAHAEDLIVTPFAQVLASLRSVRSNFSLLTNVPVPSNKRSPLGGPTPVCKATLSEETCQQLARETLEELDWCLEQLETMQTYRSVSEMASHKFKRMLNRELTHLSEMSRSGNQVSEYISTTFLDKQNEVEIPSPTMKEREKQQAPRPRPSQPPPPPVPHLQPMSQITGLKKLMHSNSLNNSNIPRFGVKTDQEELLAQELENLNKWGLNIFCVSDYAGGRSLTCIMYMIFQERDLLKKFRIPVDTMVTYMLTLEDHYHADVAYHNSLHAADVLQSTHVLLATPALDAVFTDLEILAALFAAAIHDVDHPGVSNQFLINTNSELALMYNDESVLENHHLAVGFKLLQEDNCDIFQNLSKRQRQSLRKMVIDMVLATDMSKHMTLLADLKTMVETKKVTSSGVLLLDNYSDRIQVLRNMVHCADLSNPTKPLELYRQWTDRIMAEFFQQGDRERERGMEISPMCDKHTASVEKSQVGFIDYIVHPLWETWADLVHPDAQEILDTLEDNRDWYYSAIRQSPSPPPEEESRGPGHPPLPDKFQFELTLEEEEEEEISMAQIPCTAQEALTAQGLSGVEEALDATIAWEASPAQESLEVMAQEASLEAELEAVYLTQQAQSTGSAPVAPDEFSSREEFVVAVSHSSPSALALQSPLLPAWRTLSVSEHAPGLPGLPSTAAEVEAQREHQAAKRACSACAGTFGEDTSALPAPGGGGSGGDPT
Sequence of cAMP-specific 3',5'-cyclic phosphodiesterase 4C (Q08493 whole entry): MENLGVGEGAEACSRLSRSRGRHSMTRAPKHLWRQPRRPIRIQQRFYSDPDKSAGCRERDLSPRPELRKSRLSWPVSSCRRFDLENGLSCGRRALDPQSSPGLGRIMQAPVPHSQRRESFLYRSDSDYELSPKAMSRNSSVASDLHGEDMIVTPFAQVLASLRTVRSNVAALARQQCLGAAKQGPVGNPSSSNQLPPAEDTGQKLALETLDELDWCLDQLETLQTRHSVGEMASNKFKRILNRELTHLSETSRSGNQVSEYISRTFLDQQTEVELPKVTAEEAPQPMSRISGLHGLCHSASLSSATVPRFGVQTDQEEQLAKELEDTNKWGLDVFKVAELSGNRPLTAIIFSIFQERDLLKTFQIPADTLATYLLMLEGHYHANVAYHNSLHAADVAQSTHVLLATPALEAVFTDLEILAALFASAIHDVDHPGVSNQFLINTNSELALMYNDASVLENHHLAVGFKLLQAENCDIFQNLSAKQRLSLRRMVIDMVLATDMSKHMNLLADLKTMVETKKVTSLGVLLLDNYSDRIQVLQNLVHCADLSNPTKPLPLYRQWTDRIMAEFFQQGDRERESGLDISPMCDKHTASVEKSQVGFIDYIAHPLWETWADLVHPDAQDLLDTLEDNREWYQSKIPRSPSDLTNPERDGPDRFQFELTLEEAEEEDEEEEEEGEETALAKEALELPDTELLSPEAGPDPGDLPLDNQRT
Sequence of cAMP-specific 3',5'-cyclic phosphodiesterase 4B (Q07343 whole entry): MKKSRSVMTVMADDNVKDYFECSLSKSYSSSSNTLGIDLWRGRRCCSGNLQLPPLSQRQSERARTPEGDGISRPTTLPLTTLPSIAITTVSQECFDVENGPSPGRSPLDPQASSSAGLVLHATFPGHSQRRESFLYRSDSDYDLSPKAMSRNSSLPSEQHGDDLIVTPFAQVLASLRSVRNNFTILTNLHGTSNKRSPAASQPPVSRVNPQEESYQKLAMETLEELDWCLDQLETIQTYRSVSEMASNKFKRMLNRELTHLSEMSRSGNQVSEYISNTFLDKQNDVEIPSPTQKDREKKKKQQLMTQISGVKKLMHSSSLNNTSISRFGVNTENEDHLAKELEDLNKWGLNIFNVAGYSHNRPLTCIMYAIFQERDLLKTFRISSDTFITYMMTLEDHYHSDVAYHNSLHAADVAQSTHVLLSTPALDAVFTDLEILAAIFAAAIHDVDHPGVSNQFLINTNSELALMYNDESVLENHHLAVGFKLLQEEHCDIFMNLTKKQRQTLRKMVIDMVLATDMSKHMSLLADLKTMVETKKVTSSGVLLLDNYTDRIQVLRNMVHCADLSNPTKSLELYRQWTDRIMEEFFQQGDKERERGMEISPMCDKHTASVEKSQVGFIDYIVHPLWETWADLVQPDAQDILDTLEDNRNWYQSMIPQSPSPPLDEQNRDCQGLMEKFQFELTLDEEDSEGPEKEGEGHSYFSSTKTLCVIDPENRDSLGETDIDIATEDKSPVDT
Sequence of cAMP-specific 3',5'-cyclic phosphodiesterase 4D (Q08499 whole entry): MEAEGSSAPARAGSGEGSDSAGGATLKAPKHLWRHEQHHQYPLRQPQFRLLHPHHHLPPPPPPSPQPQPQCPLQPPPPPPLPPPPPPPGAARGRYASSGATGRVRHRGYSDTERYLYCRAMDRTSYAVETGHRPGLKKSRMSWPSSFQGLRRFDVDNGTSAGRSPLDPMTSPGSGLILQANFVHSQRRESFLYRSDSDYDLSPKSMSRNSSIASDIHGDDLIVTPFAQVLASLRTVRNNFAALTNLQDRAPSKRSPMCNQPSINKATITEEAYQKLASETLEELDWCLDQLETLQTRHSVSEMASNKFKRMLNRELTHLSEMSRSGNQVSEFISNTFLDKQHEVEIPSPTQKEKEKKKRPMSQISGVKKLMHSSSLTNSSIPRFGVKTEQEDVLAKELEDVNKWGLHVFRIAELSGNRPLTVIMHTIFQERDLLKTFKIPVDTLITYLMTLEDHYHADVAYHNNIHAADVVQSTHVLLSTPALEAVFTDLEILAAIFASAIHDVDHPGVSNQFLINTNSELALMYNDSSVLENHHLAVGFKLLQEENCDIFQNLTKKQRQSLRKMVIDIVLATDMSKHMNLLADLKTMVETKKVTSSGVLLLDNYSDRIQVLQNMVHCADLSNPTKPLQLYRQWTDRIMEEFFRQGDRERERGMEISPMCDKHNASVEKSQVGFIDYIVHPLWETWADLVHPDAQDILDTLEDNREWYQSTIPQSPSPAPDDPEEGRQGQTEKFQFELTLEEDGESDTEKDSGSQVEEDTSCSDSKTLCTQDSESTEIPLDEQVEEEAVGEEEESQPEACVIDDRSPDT

As to `[O-][n+]1cccc(C[C@@H](c2ccc(OC(F)F)c(OC3CC3)c2)c2ncc(C(O)(C(F)(F)F)C(F)(F)F)s2)c1` [3-[(2S)-2-[3-cyclopropoxy-4-(difluoromethoxy)phenyl]-2-[5-(1,1,1,3,3,3-hexafluoro-2-hydroxypropan-2-yl)-1,3-thiazol-2-yl]ethyl]-1-oxidopyridin-1-ium], the IC50 in test [1] came to 0.4 nM; in test [2], 0.4 nM; in test [3], 1 nM; in test [4], 0.4 nM.

Turning to `[O-][n+]1cccc(C[C@H](c2ccc(OC(F)F)c(OC3CC3)c2)c2ncc(C(O)(C(F)(F)F)C(F)(F)F)s2)c1` [(R)-(-)-3-{2-[(3-cyclopropyloxy-4-difluromethoxy)phenyl]-2-[5-(2-(1-hydroxy-1-trifluoromethyl-2,2,2-trifluoro)ethyl)thiazolyl]ethyl}pyridine N-Oxide], the IC50 in test [1] was 40 nM; in test [2] it was 56 nM; in test [3], 135 nM.

For the origin of these results see BindingDB's records for doi:10.1021/jm051273d (University of North Carolina At Chapel Hill, 2006).
